{"source": "patent US20180346488A1", "about": "“CYTOTOXIC BENZODIAZEPINE DERIVATIVES AND CONJUGATES THEREOF” (priority 2017, published 2018)", "origin": "cited, not measured here", "conditions": "Phase I clinical evaluation; cited from earlier work", "data": [{"smiles": "C=C1C[C@H]2C=Nc3cc(OCCCOc4cc5c(cc4OC)C(=O)N4CC(=C)C[C@H]4C=N5)c(OC)cc3C(=O)N2C1", "note": "[SJG-136]", "values": [{"measurement": "DNA damage in circulating lymphocytes", "result": "noted at all doses"}, {"measurement": "adverse effects noted", "result": "vascular leak syndrome, peripheral edema, liver toxicity and fatigue"}, {"measurement": "maximum tolerated dose", "result": 45, "unit": "μg/m^2"}]}]}
